pIC50, pKi: −log10 of the molar value. Where a SMILES comes first, the peptide text is derived from it. [ ]: non-standard residue; d: D form. The star is where a group is joined. pNA = O=[N+]([O-])c1ccc(N*)cc1; AMC = Cc1cc(=O)oc2cc(N*)ccc12; MeOSuc = COC(=O)CCC(=O)*; Nle = CCCC[C@H](N)C(=O)O; SBn = c1ccc(CS*)cc1; CH2Cl = ClC* Bounds are passed on as bounds.

T1 sequence (P12546 28-264): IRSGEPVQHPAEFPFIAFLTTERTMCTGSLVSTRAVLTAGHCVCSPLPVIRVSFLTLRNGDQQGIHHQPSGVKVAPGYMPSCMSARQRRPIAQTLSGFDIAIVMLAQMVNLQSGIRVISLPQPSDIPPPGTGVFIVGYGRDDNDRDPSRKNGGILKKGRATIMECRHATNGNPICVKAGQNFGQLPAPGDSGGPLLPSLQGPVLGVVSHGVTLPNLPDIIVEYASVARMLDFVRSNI
Cercarial Proteinase, sequence (P12546 28-264): as above

One test addresses T1, cercarial protease (Schistosoma mansoni, UniProt P12546).
T1 construct: Serine protease was isolated from the acetabular glands of cercariae as described previously in McKerrow et al., 1985; from tissue; host or cells: acetabular glands of cercariae
Kind of test: biochemical.
Conditions: not given
Here is the method: (§1) The chloromethyl ketone-derivatized peptide inhibitors were designed by us based on our computer model, and synthesized for us by Enzyme System Products (Dublin, Calif.). Stock solutions of inhibitors (25 mM) were prepared in dimethyl sulfoxide (DMSO). The rate of irreversible inactivation of the protease was followed by withdrawing a 25 μl sample at 4 time intervals after mixing 125 μl of enzyme with 5 μl of inhibitor. Kitz and Wilson's methods of analysis were used for calculation of Ki, k3, and k3 /Ki (Kitz R. & Wilson, I. B. 1962. J. Biol. Chem. 237, 3245) using MeO-Suc-Ala-Ala-Pro-Phe-Sbzl (Sbzl, benzyl thioester) as substrate. Inactivation constants for the boronic acid-derivatized peptides (MeO-Suc-Ala-Ala-Pro (D or L) boro-Phe-OH, a gift from Dr. Charles Kettner, E. I. Dupont de Nemours, Wilmington, Del.) were calculated using MeO-Suc-Ala-Ala-Pro-Phe-Sbzl as the substrate at 125 and 250 μM. Five different concentrations of each inhibitor were used per substrate concentration. The data were plotted according to Dixon and kinactivation values were extrapolated from the graph (Dixon, 1953. Biochem. J. 55, 170-171).
`COC(=O)CCC(=O)N[C@@H](C)C(=O)N[C@@H](CCCCN)C(=O)N1CCC[C@H]1C(=O)N[C@@H](Cc1ccccc1)C(=O)CCl` [MeO-Suc-Ala-Lys-Pro-Phe-CMK]: the negative-log Ki (pKi) is 5.15.

`COC(=O)CCC(=O)N[C@@H](C)C(=O)N[C@@H](C)C(=O)N1CCC[C@H]1C(=O)N[C@@H](CC(C)C)C(=O)CCl` [MeO-Suc-Ala-Ala-Pro-Leu-CMK] (MeOSuc-AAPL-CH2Cl): the pKi is 4.92.

Take `COC(=O)CCC(=O)N[C@@H](C)C(=O)N[C@@H](C)C(=O)N1CCC[C@H]1C(=O)N[C@@H](Cc1c[nH]c2ccccc12)C(=O)CCl` [MeO-Suc-Ala-Ala-Pro-Trp-CMK] (MeOSuc-AAPW-CH2Cl): the negative-log Ki (pKi) was 4.70.

As to `COC(=O)CCC(=O)N[C@@H](Cc1c[nH]c2ccccc12)C(=O)N[C@@H](C)C(=O)N1CCC[C@H]1C(=O)N[C@@H](CC(C)C)C(=O)CCl` [MeO-Suc-Trp-Ala-Pro-Leu-CMK] (MeOSuc-WAPL-CH2Cl), the pKi was 5.70.

Regarding `COC(=O)CCC(=O)N[C@@H](Cc1ccccc1)C(=O)N[C@@H](C)C(=O)N1CCC[C@H]1C(=O)N[C@@H](Cc1ccccc1)C(=O)CCl` [MeO-Suc-Phe-Ala-Pro-Phe-CMK] (MeOSuc-FAPF-CH2Cl), the pKi was 6.00.

Compound `COC(=O)CCC(=O)N[C@@H](C)C(=O)N[C@@H](C)C(=O)N1CCC[C@H]1C(=O)N[C@@H](Cc1ccccc1)C(=O)CCl` [MeO-Suc-Ala-Ala-Pro-Phe-CMK] (MeOSuc-AAPF-CH2Cl) showed a pKi of 4.89.

In the case of `COC(=O)CCC(=O)N[C@@H](Cc1c[nH]c2ccccc12)C(=O)N[C@@H](C)C(=O)N1CCC[C@H]1C(=O)N[C@@H](Cc1ccccc1)C(=O)CCl` [MeO-Suc-Trp-Ala-Pro-Phe-CMK] (MeOSuc-WAPF-CH2Cl), the pKi was 4.92.

A further test deals with T1, cercarial protease.
Assay: not given
The test is classed as biochemical. Particulars: substrate hydrolysis, 100 mM glycine/NaOH, 2 mM CaCl2, pH 9.0; Lineweaver-Burk. Here is the method:
Serine protease was isolated from the acetabular glands of cercariae as described previously in McKerrow et al., 1985. J. Biol. Chem. 260, 3703-3707. All tetrapeptide thioester (Sbzl) substrates with the exception of MeO-Suc-Ala-Ala-Pro-Lys-Sbzl (a gift from Dr. James C. Powers, School of Chemistry, Georgia Institute of Technology, Atlanta, Ga.) were purchased from Enzyme System Products (Dublin, Calif.). Stock solutions (25 mM) of all substrates were prepared in dimethyl sulfoxide (DMSO). Rates of hydrolysis of substrates were measured by adding 1-10 μl of substrate and 25 μl of 1 mM 4,4'-dithiodipyridine in DMSO to buffer (100 mM glycine/NaOH, 2 mM CaCl2, pH 9.0) to give a total volume of 1.0 ml. A 10 μl enzyme sample was added to start the reaction. The increase in the absorbance at 325 nm was followed on a Gilford spectrophotometer. An ε value of 19,800 was used for the thiopyridine production.
Assays of paranitroanilide (pNA) and 7-amino-4-methyl coumarin (AMC) derivatized peptides were carried out as described in McKerrow et al., 1985. J. Biol. Chem. 260, 3703-3707. MeO-Suc-Ala-Ala-Pro-Phe-pNA was from Vega Biochemicals, Tucson, Az. MeO-Suc-Ala-Ala-Pro-Leu-pNA was a gift of Dr. David Agard, Department of Biochemistry, UCSF. All other pNA substrates were a gift of Dr. Corey Largman, Veterans Administration Hospital, Martinez, Calif. All AMC substrates were from Enzyme Systems Products, Dublin, Calif.
For each peptide substrate, the substrate concentration range was varied over ten-fold. The kinetic constants were determined from the initial rates of product formation using a least squares analysis according to method of Lineweaver-Burk (Lineweaver, H. & Burk, D. 1934. J. Am. Chem. Soc. 56, 658).
As to `COC(=O)CCC(=O)N[C@@H](C)C(=O)N[C@@H](C)C(=O)N1CCC[C@H]1C(=O)N[C@@H](CC(C)C)C(=O)SCc1ccccc1` [MeO-Suc-Ala-Ala-Pro-Leu-Sbzl] (MeOSuc-AAPL-SBn), the Km came out at 464 µM.

In the case of `CCCC[C@H](NC(=O)[C@@H]1CCCN1C(=O)[C@H](C)NC(=O)[C@H](C)NC(=O)CCC(=O)OC)C(=O)Nc1ccc([N+](=O)[O-])cc1` [MeO-Suc-Ala-Ala-Pro-Nle-pNA] (MeOSuc-AAP[Nle]-pNA), the Km is 300 µM.

In the case of `COC(=O)CCC(=O)N[C@@H](C)C(=O)N[C@@H](C)C(=O)N1CCC[C@H]1C(=O)N[C@@H](CC(C)C)C(=O)Nc1ccc([N+](=O)[O-])cc1` [MeO-Suc-Ala-Ala-Pro-Leu-pNA] (MeOSuc-AAPL-pNA), the Km came out at 118 µM.

For `COC(=O)CCC(=O)N[C@@H](C)C(=O)N[C@@H](C)C(=O)N1CCC[C@H]1C(=O)N[C@@H](Cc1ccccc1)C(=O)Nc1ccc([N+](=O)[O-])cc1` [MeO-Suc-Ala-Ala-Pro-Phe-pNA] (MeOSuc-AAPF-pNA), the Michaelis constant (Km) amounted to 119 µM.

Turning to `COC(=O)CCC(=O)N[C@@H](C)C(=O)N[C@@H](C)C(=O)N1CCC[C@H]1C(=O)N[C@@H](Cc1ccccc1)C(=O)SCc1ccccc1` [MeO-Suc-Ala-Ala-Pro-Phe-Sbzl] (MeOSuc-AAPF-SBn), the Michaelis-Menten constant (Km) was 96 µM.

Regarding `COC(=O)CCC(=O)N[C@@H](Cc1ccccc1)C(=O)N[C@@H](C)C(=O)N1CCC[C@H]1C(=O)N[C@@H](Cc1ccccc1)C(=O)SCc1ccccc1` [MeO-Suc-Phe-Ala-Pro-Phe-Sbzl] (MeOSuc-FAPF-SBn), the Km stood at 244 µM.

With `COC(=O)CCC(=O)N[C@@H](C)C(=O)N[C@@H](C)C(=O)N1CCC[C@H]1C(=O)N[C@@H](CCSC)C(=O)Nc1ccc([N+](=O)[O-])cc1` [MeO-Suc-Ala-Ala-Pro-Met-pNA] (MeOSuc-AAPM-pNA), the Km worked out at 300 µM.

Still in this test, the particulars now being: very low activity = absorbance change less than 0.001 O.D. in 40 min with 1.5 mM substrate.
`COC(=O)CCC(=O)N[C@@H](Cc1c[nH]c2ccccc12)C(=O)N[C@@H](C)C(=O)N1CCC[C@H]1C(=O)N[C@@H](Cc1ccccc1)C(=O)SCc1ccccc1` [MeO-Suc-Trp-Ala-Pro-Phe-Sbzl] (MeOSuc-WAPF-SBn): the “substrate hydrolysis activity (in words)” value was “no activity”.

In the case of `COC(=O)CCC(=O)N[C@@H](C)C(=O)N[C@@H](C)C(=O)N1CCC[C@H]1C(=O)N[C@@H](C)C(=O)Nc1ccc2c(C)cc(=O)oc2c1` [MeO-Suc-Ala-Ala-Pro-Ala-AMC] (MeOSuc-AAPA-{AMC}), the “substrate hydrolysis activity (in words)” value is recorded as “no activity”.

With `COC(=O)CCC(=O)N[C@@H](C)C(=O)N[C@@H](C)C(=O)N1CCC[C@H]1C(=O)N[C@@H](CCCCN)C(=O)SCc1ccccc1` [MeO-Suc-Ala-Ala-Pro-Lys-Sbzl] (MeOSuc-AAPK-SBn), the “substrate hydrolysis activity (in words)” value is “no activity”.

For the compound `COC(=O)CCC(=O)N[C@@H](C)C(=O)N[C@@H](C)C(=O)N1CCC[C@H]1C(=O)N[C@H](C(=O)Nc1ccc2c(C)cc(=O)oc2c1)C(C)C` [MeO-Suc-Ala-Ala-Pro-Val-AMC] (MeOSuc-AAPV-{AMC}), the “substrate hydrolysis activity (in words)” value is on record as “no activity”.

For `COC(=O)CCC(=O)N[C@@H](C)C(=O)N[C@@H](C)C(=O)N1CCC[C@H]1C(=O)N[C@@H](C)C(=O)SCc1ccccc1` [MeO-Suc-Ala-Ala-Pro-Ala-Sbzl] (MeOSuc-AAPA-SBn), the “substrate hydrolysis activity (in words)” value is “no activity”.

Another test has as its target Cercarial Proteinase (Schistosoma mansoni, UniProt P12546). Briefly: biochemical.
Conditions: not given
Here is the method:
as §1, with “Kitz and Wilson's methods of analysis were used for calculation of Ki, k3, and k3 /Ki (Kitz R. & Wilson, I.” left out
Therefore a boronic acid derivatized peptide analogous to the chloromethyl ketone derivatized Ala-Ala-Pro-Phe sequence was also tested. […] Stereoisomers of the same peptide were also evaluated.
In turn, `COC(=O)CCC(=O)N[C@@H](C)C(=O)N[C@@H](C)C(=O)N1CCC[C@H]1C(=O)N[C@@H](C)C(=O)CCl` [MeO-Suc-Ala-Ala-Pro-Ala-CMK] (MeOSuc-AAPA-CH2Cl) had a pIC50 of less than 4.00.

In the case of `COC(=O)CCC(=O)N[C@@H](C)C(=O)N[C@@H](C)C(=O)N1CCC[C@H]1C(=O)N[C@@H](CC(C)C)C(=O)CCl` [MeO-Suc-Ala-Ala-Pro-Leu-CMK] (MeOSuc-AAPL-CH2Cl), the pIC50 is 7.44.

Compound `COC(=O)CCC(=O)N[C@@H](C)C(=O)N[C@@H](C)C(=O)N1CCC[C@H]1C(=O)N[C@@H](Cc1ccccc1)C(=O)CCl` [MeO-Suc-Ala-Ala-Pro-Phe-CMK] (MeOSuc-AAPF-CH2Cl) showed a pIC50 of 7.06.

In another test the test system is cercariae of Schistosoma mansoni (Puerto Rican strain).
Assay: not given
Type of test: cell-based. The note with it: 50 micromolar. The procedure:
A modification of the assay developed by Clegg and Smithers (Clegg & Smithers, 1972. Int. J. Parasitol. 2, 79-98.) was used. Two Plexiglass chambers were manufactured which could be screwed together to hold a 25×25 mm section of skin at the interface of the two chambers. Human skin was obtained from autopsy (6-12 hours following death) or from amputation specimens received at the Department of Surgical Pathology, UCSF. The chamber below the skin was filled with tissue culture medium (DME H16) prewarmed to 37° C. After the skin was clamped, the upper chamber was filled with water containing 9000 cercariae of Schistosoma mansoni (Puerto Rican strain). Cercariae will follow a thermal gradient, and they are stimulated by the lipid on the surface of skin to invade (Stirewalt, 1974. Adv. Parasitol. 12, 115-180). After one hour exposure to cercariae the skin was removed, fixed in 10% phosphate buffered formalin for 24 h, and sectioned at 2 mm intervals. Following dehydration and routine paraffin embedding, 5μ sections were cut by microtome and stained with hemotoxylin and eosin. The number of cercariae which had invaded epidermis or dermis was counted in each section. Percent inhibition of invasion was calculated as [formula] All assays were done in triplicate and standard deviation of the mean calculated. […]
For the compound `COC(=O)CCC(=O)N[C@@H](C)C(=O)N[C@@H](C)C(=O)N1CCC[C@H]1C(=O)N[C@H](Cc1ccccc1)B(O)O` [MeO-Suc-Ala-Ala-Pro-(D)boro-Phe-OH], the “cercariae inhibited from invading skin” value is reported as “less than 20%”.
